According to patent publication US7368424B2, “Acylated nonadepsipeptides” (AiCuris GmbH & Co. KG, priority 2003, dated 2008):
Values after ≈ are worked out from the molar mass of the structure shown. Read-outs that look alike come from different tables or passages of the source. *1 amine or outer side, *2 acyl side, *3 side chain or, on linkers, in order; H or OH if unused. Where a SMILES comes first, the peptide text is derived from it. Bridges are numbered along the chain shown (N, C = ends). [ ]: non-standard residue; d: D form. The star is where a group is joined. ξ: configuration not given here. Phe(3R-OH) = O=C([C@@H](N[*:1])[C@H](O[*:3])c1ccccc1)[*:2]; Phe(3,4-(OMe)2) = COc1ccc(C[C@H](N)C(=O)O)cc1OC; Asn(3S-OH) = NC(=O)[C@@H](O)[C@H](N)C(=O)O; Leu(3R-OH) = CC(C)[C@@H](O)[C@H](N)C(=O)O; d(tBuAla) = CC(C)(C)C[C@@H](N)C(=O)O; 3Pal = N[C@@H](Cc1cccnc1)C(=O)O; aThr = C[C@H](O)[C@H](N)C(=O)O; ξIle = CC[C@H](C)C(N)C(=O)O; dOrn = NCCC[C@@H](N)C(=O)O; Ac6c = NC1(C(=O)O)CCCCC1; Cbz = O=C(OCc1ccccc1)*

How the values were obtained:
E. faecalis ICB 27159 = type: cell-based, Enterococcus faecalis
Procedure: (§1) Determination of the Minimum Inhibitory Concentration (MIC):
(§2) The MIC is determined in the liquid dilution test in accordance with the NCCLS guidelines. Overnight cultures of Staphylococcus aureus 133, Enterococcus faecalis 27159, E. faecium 4147 and Streptococcus pneumoniae G9a are incubated with the desired test substances in a 1:2 dilution series. The MIC determination is carried out with a cell count of 10^5 microbes per ml in Isosensitest medium (Difco, Irvine/USA), with the exception of S. pneumoniae which is tested in BHI broth (Difco, Irvine/USA) with 10% bovine serum with a cell count of 10^6 microbes per ml. The cultures are incubated at 37° C. for 18-24 hours, S. pneumoniae in the presence of 10% CO2.
(§3) The MIC is defined as the lowest concentration of each substance at which visible bacterial growth no longer occurs. The MIC values are reported in μg/ml.

[1] = system: Streptococcus pneumoniae G9a; type: cell-based
Procedure: as §1, §2, §3

[2] = system: Staphylococcus aureus 133; type: cell-based
Procedure: as §1, §2, §3

E. faecium L4001 = type: cell-based, Enterococcus faecium
[3] = Isosensitest medium, 10^5 microbes per ml, 37° C., 18-24 hours

Row | Compound | MIC E. faecalis ICB 27159 (E. faecalis ICB 27159; ICB 27159) | MIC S. pneumoniae ([1]; G9a) | MIC S. aureus 133 [2]; 133 | MIC E. faecium L4001 (E. faecium L4001; L4001) | MIC E. faecalis ICB 27159 (E. faecalis ICB 27159; [3]) | MIC S. pneumoniae ([1]; BHI broth with 10% bovine serum, 10^6 microbes per ml, 10% CO2, 37° C., 18-24 hours) | MIC S. aureus 133 [2, 3] | MIC E. faecium L4001 (E. faecium L4001; [3])
1 | CC[C@H](C)[C@@H]1NC(=O)[C@@H](CCCNC(=N)N)NC(=O)[C@H](CC(C)C)NC(=O)[C@H]([C@H](O)C(C)C)NC(=O)[C@@H](NC(=O)[C@H](CC(C)C)NC(=O)[C@H](N)CCCNC(=O)OCc2ccccc2)[C@@H](c2ccccc2)OC(=O)[C@H](CO)NC(=O)[C@H]([C@H](O)C(N)=O)NC(=O)CNC(=O)[C@H]([C@H](C)O)NC1=O [Example 62, N^6-[(Benzyloxy)carbonyl]-D-ornithyl-de(1-D-leucyl)lysobactin bistrifluoroacetate] (H-[dOrn](Cbz)L[Phe(3R-OH)][Leu(3R-OH)]L[dR]I[aThr]G[Asn(3S-OH)]S; ester 3-C) | 1 µg/mL (≈ 0.708 µM) | 0.5 µg/mL (≈ 0.354 µM) | 0.25 µg/mL (≈ 0.177 µM) | 0.5 µg/mL (≈ 0.354 µM) | – | – | – | –
2 | CC[C@H](C)[C@@H]1NC(=O)[C@@H](CCCNC(=N)N)NC(=O)[C@H](CC(C)C)NC(=O)[C@H]([C@H](O)C(C)C)NC(=O)[C@@H](NC(=O)[C@H](Cc2cccnc2)NC(=O)[C@H](N)CC(C)(C)C)[C@@H](c2ccccc2)OC(=O)[C@H](CO)NC(=O)[C@H]([C@H](O)C(N)=O)NC(=O)CNC(=O)[C@H]([C@H](C)O)NC1=O [Example 69, 3-tert-Butyl-D-alanyl-3-(3-pyridyl)-L-alanyl-de(1-D-leucyl-2-L-leucyl)lysobactin tristrifluoroacetate] (H-[d(tBuAla)][3Pal][Phe(3R-OH)][Leu(3R-OH)]L[dR]I[aThr]G[Asn(3S-OH)]S; ester 3-C) | 1 µg/mL (≈ 0.754 µM) | 0.5 µg/mL (≈ 0.377 µM) | 0.5 µg/mL (≈ 0.377 µM) | 1 µg/mL (≈ 0.754 µM) | – | – | – | –
3 | CC[C@H](C)[C@@H]1NC(=O)[C@@H](CCCNC(=N)N)NC(=O)[C@H](CC(C)C)NC(=O)[C@H]([C@H](O)C(C)C)NC(=O)[C@@H](NC(=O)[C@H](CC(C)C)NC(=O)[C@H](N)CCSC)[C@@H](c2ccccc2)OC(=O)[C@H](CO)NC(=O)[C@H]([C@H](O)C(N)=O)NC(=O)CNC(=O)[C@H]([C@H](C)O)NC1=O [Example 24, D-Methionyl-de(1-D-leucyl)lysobactin bistrifluoroacetate] (H-[dM]L[Phe(3R-OH)][Leu(3R-OH)]L[dR]I[aThr]G[Asn(3S-OH)]S; ester 3-C) | 2 µg/mL (≈ 1.54 µM) | 0.5 µg/mL (≈ 0.386 µM) | 0.25 µg/mL (≈ 0.193 µM) | 1 µg/mL (≈ 0.772 µM) | – | – | – | –
4 | CC[C@H](C)[C@@H]1NC(=O)[C@@H](CCCNC(=N)N)NC(=O)[C@H](CC(C)C)NC(=O)[C@H]([C@H](O)C(C)C)NC(=O)[C@@H](NC(=O)[C@H](CC(C)C)NC(=O)C2(N)CCCCC2)[C@@H](c2ccccc2)OC(=O)[C@H](CO)NC(=O)[C@H]([C@H](O)C(N)=O)NC(=O)CNC(=O)[C@H]([C@H](C)O)NC1=O [Example 57, N-(1-Aminocyclohexyl)carbonyl-de(1-D-leucyl)lysobactin bistrifluoroacetate] (H-[Ac6c]L[Phe(3R-OH)][Leu(3R-OH)]L[dR]I[aThr]G[Asn(3S-OH)]S; ester 3-C) | 1 µg/mL (≈ 0.776 µM) | 0.25 µg/mL (≈ 0.194 µM) | 0.5 µg/mL (≈ 0.388 µM) | 1 µg/mL (≈ 0.776 µM) | – | – | – | –
5 | CC[C@H](C)[C@@H]1NC(=O)[C@@H](CCCNC(=N)N)NC(=O)[C@H](CC(C)C)NC(=O)[C@H]([C@H](O)C(C)C)NC(=O)[C@@H](NC(=O)[C@H](Cc2ccc(OC)c(OC)c2)NC(=O)[C@H](N)CC(C)(C)C)[C@@H](c2ccccc2)OC(=O)[C@H](CO)NC(=O)[C@H]([C@H](O)C(N)=O)NC(=O)CNC(=O)[C@H]([C@H](C)O)NC1=O [Example 86, 3-tert-Butyl-D-alanyl-3-(3,4-dimethoxyphenyl)-L-alanyl-de(1-D-leucyl-2-L-leucyl)lysobactin bistri-fluoroacetate] (H-[d(tBuAla)][Phe(3,4-(OMe)2)][Phe(3R-OH)][Leu(3R-OH)]L[dR]I[aThr]G[Asn(3S-OH)]S; ester 3-C) | – | – | – | – | 0.5 µg/mL (≈ 0.361 µM) | 0.125 µg/mL (≈ 0.0903 µM) | 0.25 µg/mL (≈ 0.181 µM) | 1 µg/mL (≈ 0.722 µM)
6 | CC[C@H](C)[C@@H]1NC(=O)[C@@H](CCCNC(=N)N)NC(=O)[C@H](CC(C)C)NC(=O)[C@H]([C@H](O)C(C)C)NC(=O)[C@@H](NC(=O)[C@H](CC(C)C)NC(=O)[C@H](N)CC(C)C)[C@@H](c2ccccc2)OC(=O)[C@H](CO)NC(=O)[C@H]([C@H](O)C(N)=O)NC(=O)CNC(=O)[C@H]([C@H](C)O)NC1=O.O=C(O)C(F)(F)F.O=C(O)C(F)(F)F [Example 1A, D-Leucyl-N^1-{(3S,6S,12S,15S,18R,21S,24S,27S,28R)-6-[(1S)-2-amino-1-hydroxy-2-oxoethyl]-18-(3-{[amino(imino)methyl]amino}propyl)-12-[(1S)-1-hydroxyethyl]-3-(hydroxymethyl)-24-[(1R)-1-hydroxy-2-methylpropyl]-21-isobutyl-15-[(1S)-1-methylpropyl]-2,5,8,11,14,17,20,23,26-nonaoxo-28-phenyl-1-oxa-4,7,10,13,16,19,22,25-octaazacyclooctacosan-27-yl}-L-leucinamide bistrifluoro-acetate, reference compound] (H-[dL]L[Phe(3R-OH)][Leu(3R-OH)]L[dR]I[aThr]G[Asn(3S-OH)]S; ester 3-C) | 1 µg/mL | 0.063 µg/mL | 0.25 µg/mL | 0.5 µg/mL | – | – | – | –
7 | CC[C@H](C)[C@@H]1NC(=O)[C@@H](CCCNC(=N)N)NC(=O)[C@H](CC(C)C)NC(=O)[C@H]([C@H](O)C(C)C)NC(=O)[C@@H](NC(=O)[C@H](Cc2ccccc2)NC(=O)[C@H](N)Cc2ccccc2)[C@@H](c2ccccc2)OC(=O)[C@H](CO)NC(=O)[C@H]([C@H](O)C(N)=O)NC(=O)CNC(=O)[C@H]([C@H](C)O)NC1=O.O=C(O)C(F)(F)F.O=C(O)C(F)(F)F [Example 82, D-Phenylalanyl-L-phenylalanyl-de(1-D-leucyl-2-L-leucyl)lysobactine bistrifluoroacetate] (H-[dF]F[Phe(3R-OH)][Leu(3R-OH)]L[dR]I[aThr]G[Asn(3S-OH)]S; ester 3-C) | 1 µg/mL | 0.125 µg/mL | 0.125 µg/mL | 0.5 µg/mL | – | – | – | –
8 | CC[C@H](C)C1NC(=O)[C@@H](CCCNC(=N)N)NC(=O)[C@H](CC(C)C)NC(=O)[C@H]([C@H](O)C(C)C)NC(=O)[C@@H](NC(=O)[C@H](CCCCNC(=O)OCc2ccccc2)NC(=O)[C@H](N)CC(C)(C)C)[C@@H](c2ccccc2)OC(=O)[C@H](CO)NC(=O)[C@H]([C@H](O)C(N)=O)NC(=O)CNC(=O)[C@H]([C@H](C)O)NC1=O.O=C(O)C(F)(F)F.O=C(O)C(F)(F)F (stereo partly drawn) [Example 107, {(3-tert-Butylalanyl)-[N^6-(benzyloxycarbonyl)lysyl]}-de(1-D-leucyl-2-L-leucyl)lysobactin bistrifluoroacetate] (H-[d(tBuAla)]K(Cbz)[Phe(3R-OH)][Leu(3R-OH)]L[dR][ξIle][aThr]G[Asn(3S-OH)]S; ester 3-C) | 1 µg/mL | 0.25 µg/mL | 0.25 µg/mL | 0.5 µg/mL | – | – | – | –
